Drawing on US10011607B2, “Ethynyl derivatives” (Hoffmann-La Roche Inc., priority 2015, dated 2018), this text covers Emax and EC50 for 20 molecules.

The target in this assay is human mGlu4 receptor (Homo sapiens (Human), UniProt Q14833). Kind of assay: Ca2+ mobilization in vitro assay on recombinant human mGlu4 expressed in HEK293 cells (PAM). In kind it is cell-based. To be noted: for Emax: HEK293, maximal response in % of maximal stimulatory effect of saturating L-AP4, read-out: Eff. (%); for EC50: HEK293 cells, human mGlu4, in presence of EC20 of L-AP4, read-out: EC50 (nM) mGlu4PAM. From the text:
FIG. 1: Illustrates the experimental outline for mGlu4 PAM Ca^2+ mobilization screening assay and the determination of EC50 and % Emax values. […] A depression of the signal observed after addition of the EC20 concentration of L-AP4 was indicative of an inhibitory activity of the test compound.
Determination of EC50 Values Using a Ca2+ Mobilization In Vitro Assay on Recombinant Human mGlu4 Expressed in HEK293 Cells:
A monoclonal HEK-293 cell line stably transfected with a cDNA encoding for the human mGlu4 receptor was generated; for the work with mGlu4 Positive Allosteric Modulators (PAMs), a cell line with low receptor expression levels and low constitutive receptor activity was selected to allow the differentiation of agonistic versus PAM activity. Cells were cultured according to standard protocols (Freshney, 2000) in Dulbecco's Modified Eagle Medium with high glucose supplemented with 1 mM glutamine, 10% (vol/vol) heat-inactivated bovine calf serum, Penicillin/Streptomycin, 50 μg/ml hygromycin and 15 μg/ml blasticidin (all cell culture reagents and antibiotics from Invitrogen, Basel, Switzerland).
About 24 hrs before an experiment, 5×10^4 cells/well were seeded in poly-D-lysine coated, black/clear-bottomed 96-well plates. The cells were loaded with 2.5 μM Fluo-4AM in loading buffer (1×HBSS, 20 mM HEPES) for 1 hr at 37° C. and washed five times with loading buffer. The cells were transferred into a Functional Drug Screening System 7000 (Hamamatsu, Paris, France), and 11 half logarithmic serial dilutions of test compound at 37° C. were added and the cells were incubated for 10-30 min. with on-line recording of fluorescence. Following this pre-incubation step, the agonist (2S)-2-amino-4-phosphonobutanoic acid (L-AP4) was added to the cells at a concentration corresponding to EC20 with on-line recording of fluorescence; in order to account for day-to-day variations in the responsiveness of cells, the EC20 of L-AP4 was determined immediately ahead of each experiment by recording of a full dose-response curve of L-AP4.
Responses were measured as peak increase in fluorescence minus basal (i.e. fluorescence without addition of L-AP4), normalized to the maximal stimulatory effect obtained with saturating concentrations of L-AP4. Graphs were plotted with the % maximal stimulatory using XLfit, a curve fitting program that iteratively plots the data using Levenburg Marquardt algorithm. The single site competition analysis equation used was y=A+((B−A)/(1+((x/C)D))), where y is the % maximal stimulatory effect, A is the minimum y, B is the maximum y, C is the EC50, x is the log 10 of the concentration of the competing compound and D is the slope of the curve (the Hill Coefficient). From these curves the EC50 (drug concentration at which 50% of the maximal receptor activation was achieved), the Hill coefficient as well as the maximal response in % of the maximal stimulatory effect obtained with saturating concentrations of L-AP4 were calculated (see FIG. 1).
(In general: A change in cytosolic calcium serves as a functional read-out for many receptors and channels.)

Sequence of human mGlu4 receptor (Q14833 33-912): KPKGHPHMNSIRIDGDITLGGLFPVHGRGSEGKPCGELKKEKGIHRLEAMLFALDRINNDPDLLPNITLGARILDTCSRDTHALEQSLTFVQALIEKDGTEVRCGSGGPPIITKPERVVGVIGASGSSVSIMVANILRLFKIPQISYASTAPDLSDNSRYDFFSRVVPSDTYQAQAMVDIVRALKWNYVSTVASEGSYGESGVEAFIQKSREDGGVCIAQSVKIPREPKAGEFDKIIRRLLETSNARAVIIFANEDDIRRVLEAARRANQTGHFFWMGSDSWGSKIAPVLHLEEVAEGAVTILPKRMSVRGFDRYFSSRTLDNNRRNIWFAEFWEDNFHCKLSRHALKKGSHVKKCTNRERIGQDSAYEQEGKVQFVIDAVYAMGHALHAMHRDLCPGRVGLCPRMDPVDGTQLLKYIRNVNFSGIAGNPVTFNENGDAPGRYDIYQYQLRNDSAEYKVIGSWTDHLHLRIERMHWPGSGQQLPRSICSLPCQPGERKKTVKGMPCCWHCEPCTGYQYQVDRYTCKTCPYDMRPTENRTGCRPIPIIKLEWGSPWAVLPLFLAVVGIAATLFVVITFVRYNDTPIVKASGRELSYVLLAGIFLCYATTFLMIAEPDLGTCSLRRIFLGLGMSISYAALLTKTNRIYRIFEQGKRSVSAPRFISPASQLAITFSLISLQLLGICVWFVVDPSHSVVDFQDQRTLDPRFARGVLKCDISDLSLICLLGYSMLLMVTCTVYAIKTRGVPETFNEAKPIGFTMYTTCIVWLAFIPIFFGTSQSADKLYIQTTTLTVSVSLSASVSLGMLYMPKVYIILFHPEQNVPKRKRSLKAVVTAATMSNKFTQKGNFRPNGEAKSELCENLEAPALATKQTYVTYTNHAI

A word on the EC50: it is the concentration giving half of the maximal effect. Take `O=C1C2CC(=O)N(c3c(F)cc(C#Cc4ccccc4)cc3F)C(=O)N2CCN1c1cccnc1` (racemic) [Example 1, (9aRS)-7-[2,6-difluoro-4-(2-phenylethynyl)phenyl]-2-(3-pyridyl)-3,4,9,9a-tetrahydropyrazino[1,2-c]pyrimidine-1,6,8-trione]: the Emax was 105% and the EC50 worked out at 224 nM.

As to `O=C1C2CC(=O)N(c3c(F)cc(C#Cc4ccccc4)cc3F)C(=O)N2CCN1c1ccncn1` (racemic) [Example 2, (9aRS)-7-[2,6-difluoro-4-(2-phenylethynyl)phenyl]-2-pyrimidin-4-yl-3,4,9,9a-tetrahydropyrazino[1,2-c]pyrimidine-1,6,8-trione], the Emax amounted to 88% and the EC50 stood at 85 nM.

For the molecule `O=C1C2CC(=O)N(c3c(F)cc(C#Cc4ccccc4)cc3F)C(=O)N2CCN1c1ccccn1` (racemic) [Example 3, (9aRS)-7-[2,6-difluoro-4-(2-phenylethynyl)phenyl]-2-(2-pyridyl)-3,4,9,9a-tetrahydropyrazino[1,2-c]pyrimidine-1,6,8-trione], the Emax came out at 116% and the EC50 worked out at 235 nM.

`CC12CC(=O)N(c3c(F)cc(C#Cc4ccccc4)cc3F)C(=O)N1CCN(c1ccccn1)C2=O` (racemic) [Example 4, (9aRS)-7-[2,6-difluoro-4-(2-phenylethynyl)phenyl]-9a-methyl-2-(2-pyridyl)-4,9-dihydro-3H-pyrazino[1,2-c]pyrimidine-1,6,8-trione]: the Emax turned out to be 110% and the EC50 amounted to 119 nM.

On to `CC12CC(=O)N(c3c(F)cc(C#Cc4ccccc4)cc3F)C(=O)N1CCN(c1cccnc1)C2=O` (racemic) [Example 6, (9aRS)-7-[2,6-difluoro-4-(2-phenylethynyl)phenyl]-9a-methyl-2-(3-pyridyl)-4,9-dihydro-3H-pyrazino[1,2-c]pyrimidine-1,6,8-trione], for which the Emax was found to be 122% and the 50% effective concentration (EC50) stood at 118 nM.

Regarding `CC12CC(=O)N(c3c(F)cc(C#Cc4ccccc4)cc3F)C(=O)N1CCN(c1ccncc1)C2=O` (racemic) [Example 8, (9aRS)-7-[2,6-difluoro-4-(2-phenylethynyl)phenyl]-9a-methyl-2-(4-pyridyl)-4,9-dihydro-3H-pyrazino[1,2-c]pyrimidine-1,6,8-trione], the Emax is 118% and the EC50 is 129 nM.

Take `Cc1cccc(N2CCN3C(=O)N(c4c(F)cc(C#Cc5ccccc5)cc4F)C(=O)CC3(C)C2=O)n1` (racemic) [Example 10, (9aRS)-7-[2,6-difluoro-4-(2-phenylethynyl)phenyl]-9a-methyl-2-(6-methyl-2-pyridyl)-4,9-dihydro-3H-pyrazino[1,2-c]pyrimidine-1,6,8-trione]: the Emax worked out at 127% and the EC50 was 163 nM.

Consider `Cc1cc(N2CCN3C(=O)N(c4c(F)cc(C#Cc5ccccc5)cc4F)C(=O)CC3(C)C2=O)ccn1` (racemic) [Example 11, (9aRS)-7-[2,6-difluoro-4-(2-phenylethynyl)phenyl]-9a-methyl-2-(2-methyl-4-pyridyl)-4,9-dihydro-3H-pyrazino[1,2-c]pyrimidine-1,6,8-trione], for which the Emax worked out at 119% and the EC50 turned out to be 214 nM.

As for `Cc1ccnc(N2CCN3C(=O)N(c4c(F)cc(C#Cc5ccccc5)cc4F)C(=O)CC3(C)C2=O)c1` (racemic) [Example 12, (9aRS)-7-(2,6-difluoro-4-(phenylethynyl)phenyl)-9a-methyl-2-(4-methylpyridin-2-yl)tetrahydro-1H-pyrazino[1,2-c]pyrimidine-1,6,8(2H,7H)-trione], the Emax turned out to be 126% and the EC50 amounted to 131 nM.

Take `Cc1cncc(N2CCN3C(=O)N(c4c(F)cc(C#Cc5ccccc5)cc4F)C(=O)CC3(C)C2=O)c1` (racemic) [Example 14, (9aRS)-7-[2,6-difluoro-4-(2-phenylethynyl)phenyl]-9a-methyl-2-(5-methyl-3-pyridyl)-4,9-dihydro-3H-pyrazino[1,2-c]pyrimidine-1,6,8-trione]: the Emax is 129% and the EC50 stood at 105 nM.

Consider `Cc1ccc(N2CCN3C(=O)N(c4c(F)cc(C#Cc5ccccc5)cc4F)C(=O)CC3(C)C2=O)cn1` (racemic) [Example 16, (9aRS)-7-[2,6-difluoro-4-(2-phenylethynyl)phenyl]-9a-methyl-2-(6-methyl-3-pyridyl)-4,9-dihydro-3H-pyrazino[1,2-c]pyrimidine-1,6,8-trione], for which the Emax came out at 125% and the EC50 came out at 298 nM.

For the molecule `CC12CC(=O)N(c3c(F)cc(C#Cc4ccccc4)cc3F)C(=O)N1CCN(c1ccnc(Cl)c1)C2=O` (racemic) [Example 18, (9aRS)-2-(2-chloro-4-pyridyl)-7-[2,6-difluoro-4-(2-phenylethynyl)phenyl]-9a-methyl-4,9-dihydro-3H-pyrazino[1,2-c]pyrimidine-1,6,8-trione], the Emax worked out at 131% and the EC50 was determined as 114 nM.

Consider `CC12CC(=O)N(c3c(F)cc(C#Cc4ccccc4)cc3F)C(=O)N1CCN(c1ccc(Cl)nc1)C2=O` (racemic) [Example 20, (9aRS)-2-(6-chloro-3-pyridyl)-7-[2,6-difluoro-4-(2-phenylethynyl)phenyl]-9a-methyl-4,9-dihydro-3H-pyrazino[1,2-c]pyrimidine-1,6,8-trione], for which the Emax worked out at 101% and the EC50 was 116 nM.

For `COc1ccc(N2CCN3C(=O)N(c4c(F)cc(C#Cc5ccccc5)cc4F)C(=O)CC3(C)C2=O)cn1` (racemic) [Example 22, (9aRS)-7-[2,6-difluoro-4-(2-phenylethynyl)phenyl]-2-(6-methoxy-3-pyridyl)-9a-methyl-4,9-dihydro-3H-pyrazino[1,2-c]pyrimidine-1,6,8-trione], the Emax was 106% and the EC50 worked out at 105 nM.

As for `CC12CC(=O)N(c3c(F)cc(C#Cc4ccccc4)cc3F)C(=O)N1CCN(c1ncccn1)C2=O` (racemic) [Example 25, (9aRS)-7-[2,6-difluoro-4-(2-phenylethynyl)phenyl]-9a-methyl-2-pyrimidin-2-yl-4,9-dihydro-3H-pyrazino[1,2-c]pyrimidine-1,6,8-trione], the Emax was determined as 122% and the EC50 amounted to 135 nM.

Turning to `CC12CC(=O)N(c3c(F)cc(C#Cc4ccccc4)cc3F)C(=O)N1CCN(c1ccncn1)C2=O` (racemic) [Example 26, (9aRS)-7-[2,6-difluoro-4-(2-phenylethynyl)phenyl]-9a-methyl-2-pyrimidin-4-yl-4,9-dihydro-3H-pyrazino[1,2-c]pyrimidine-1,6,8-trione], the Emax came out at 101% and the EC50 worked out at 36 nM.

Turning to `CC12CC(=O)N(c3c(F)cc(C#Cc4ccccc4)cc3F)C(=O)N1CCN(c1cncnc1)C2=O` (racemic) [Example 28, (9aRS)-7-[2,6-difluoro-4-(2-phenylethynyl)phenyl]-9a-methyl-2-pyrimidin-5-yl-4,9-dihydro-3H-pyrazino[1,2-c]pyrimidine-1,6,8-trione], the Emax turned out to be 120% and the EC50 was 145 nM.

For `Cc1cc(N2CCN3C(=O)N(c4c(F)cc(C#Cc5ccccc5)cc4F)C(=O)CC3(C)C2=O)nc(C)n1` (racemic) [Example 29, (9aRS)-7-[2,6-difluoro-4-(2-phenylethynyl)phenyl]-2-(2,6-dimethylpyrimidin-4-yl)-9a-methyl-4,9-dihydro-3H-pyrazino[1,2-c]pyrimidine-1,6,8-trione], the Emax is 112% and the EC50 came to 177 nM.

On to `Cc1nccc(N2CCN3C(=O)N(c4c(F)cc(C#Cc5ccccc5)cc4F)C(=O)CC3(C)C2=O)n1` (racemic) [Example 30, (9aRS)-7-[2,6-difluoro-4-(2-phenylethynyl)phenyl]-9a-methyl-2-(2-methylpyrimidin-4-yl)-4,9-dihydro-3H-pyrazino[1,2-c]pyrimidine-1,6,8-trione], for which the Emax is 101% and the EC50 came out at 113 nM.

`CC12CC(=O)N(c3c(F)cc(C#Cc4ccccc4)cc3F)C(=O)N1CCN(c1cnccn1)C2=O` (racemic) [Example 32, (9aRS)-7-[2,6-difluoro-4-(2-phenylethynyl)phenyl]-9a-methyl-2-pyrazin-2-yl-4,9-dihydro-3H-pyrazino[1,2-c]pyrimidine-1,6,8-trione]: the Emax came to 112% and the EC50 worked out at 88 nM.
